Measurements reported in article PMC5308254, “Bioactivity of Natural and Engineered Antimicrobial Peptides from Venom of the Scorpions Urodacus yaschenkoi and U. manicatus” (Toxins, 2017).
No end group written: not given here.

Assays:
pig erythrocytes = assay: Hemolytic activity on pig erythrocytes; type: cell-based; settings: 1 h at 37 °C; for HC10 (hemolytic concentration) / HC90 (hemolytic concentration) / HC50 (hemolytic concentration): 6.25–100 µM, absorbance 570 nm, non-linear fit; for HC10 (hemolytic concentration) / HC90 (hemolytic concentration): n ≥ 3; for HC50 (hemolytic concentration): n ≥ 3, n.c. (100) = not convergent at 100 µM
Protocol: The hemolytic activity of each AMP was determined using pig erythrocytes. Serial dilutions (6.25–100 µM) of each AMP were prepared, and after incubation for 1 h at 37 °C the cells were centrifuged and the absorbance of the supernatant was measured at 570 nm using an Eon Microplate Spectrophotometer (BioTek Instruments, Winooski, VT, USA). Three independent experiments were carried out for each concentration in triplicate. PBS and 10% Triton X–100 were used as negative and positive controls, respectively. The percentage hemolysis was calculated using the formula 100((Apeptide–APBS)/(Atriton–APBS)). The AMP concentration causing 50% hemolysis (HC50) of the pig erythrocytes was determined by non-linear regression with the data fitted to the logistical sigmoidal equation, using GraphPad Prism v5.0 (GraphPad Software, San Diego, CA, USA) (Figure S2).

[1] = system: Listeria monocytogenes (DSM20600); assay: Growth inhibition assay (MIC), L. monocytogenes; type: cell-based; settings: 384-well plates, BHIB, 37 °C, peptide 0.015–250 µM; growth totally inhibited; average of n ≥ 3; dash = no inhibition
Protocol: (§1) The minimal inhibitory concentration (MIC) of each AMPs was determined against the Gram-positive bacteria Listeria monocytogenes (DSM20600), L. grayi (DSM20601), L. fleischmannii (DSM24998), Staphylococcus aureus (DSM2569) and Micrococcus luteus (DSM20030), and the Gram-negative species Escherichia coli (D31) and Pseudomonas aeruginosa (DSM50071). The scorpion peptides were prepared at concentrations of 0.015–250 μM. The assays were carried out in 384-well plates (Greiner Bio One, Frickenhausen, Germany) using Brain Heart Infusion Broth (BHIB) medium for Listeria spp., Tryptic Soy Broth (TSB) for S. aureus, and lysogeny broth (LB) for the others. The bacteria were cultivated overnight at either 37 °C (Listeria spp., S. aureus, E. coli and P. aeruginosa) or 30 °C (M. luteus) and subcultured in fresh media before the growth inhibition assays. Growth inhibition was measured as previously described.

L. grayi (DSM20601) = assay: Growth inhibition assay (MIC), L. grayi; type: cell-based, Listeria grayi; settings: 384-well plates, BHIB, 37 °C, peptide 0.015–250 µM; growth totally inhibited; average of n ≥ 3; dash = no inhibition
Protocol: as §1

[2] = system: Micrococcus luteus (DSM20030); assay: Growth inhibition assay (MIC), M. luteus; type: cell-based; settings: 384-well plates, LB, 30 °C, peptide 0.015–250 µM; MIC = concentration at which growth was totally inhibited; average of n ≥ 3; dash = no inhibition
Protocol: as §1

Escherichia coli (D31) = assay: Growth inhibition assay (MIC), E. coli; type: cell-based; settings: 384-well plates, LB, 37 °C, peptide 0.015–250 µM; growth totally inhibited; average of n ≥ 3; dash = no inhibition
Protocol: as §1

[3] = system: Pseudomonas aeruginosa (DSM50071); assay: Growth inhibition assay (MIC), P. aeruginosa; type: cell-based; settings: LB, 37 °C, highest concentration tested 250 µM
Protocol: as §1

[4] = system: baby hamster kidney cells (BHK21); assay: Cytotoxicity, alamarBlue, BHK-21 cells; type: cell-based; settings: 2 h at 37 °C, 0.1–100 µM, alamarBlue fluorescence, non-linear fit, n ≥ 3
Protocol: (§2) Cytotoxicity was evaluated using the baby hamster kidney cell line (BHK-21) included in F2H®-Kit Basic (Chromotek, Planegg-Martinsried, Germany). The BHK-21 cells were grown in 25-cm^2 cell culture flasks (Greiner Bio One, Frickenhausen, Germany) containing Dulbecco’s Modified Eagle’s Medium (DMEM) supplemented with 4.5 g/L glucose, 110 mg/L sodium pyruvate and L-glutamine, and 10% fetal bovine serum (FBS), and were maintained in an NU-5810 incubator (ibs tecnomara, Fernwald, Germany) at 37 °C with a 5% CO2 atmosphere. The cells were subcultured at ~90% confluence by detaching with 0.25% trypsin and 0.03% EDTA (Sigma-Aldrich, St Louis, MO, USA). The AMPs were dissolved in water and diluted to final concentrations of 0.1, 1, 10 and 100 µM in DMEM.
(§3) BHK-21 cells were prepared and tested as previously described. Confluent cells were detached, counted and seeded at a concentration of 8.5 × 10^4 cell/mL in a 96-well culture plate (Greiner Bio One-Cell Star) 48 h before each experiment. The cells were rinsed with 100 µL PBS before adding 100 µL of the AMP solution and incubating for 2 h at 37 °C. The AMP solution was then removed and the cells were rinsed again with PBS before staining with 10% v/v alamarBlue™ Dye (Thermo Fisher Scientific, Schwerte, Germany) in DMEM for 1 h. The fluorescence of the metabolized alamarBlue™ Dye was measured in an Eon microplate reader using excitation and emission filters of 528 and 590 nm, respectively. DMEM and cells exposed to DMEM without AMPs were included as a blank reference and negative control, respectively. Four independent experiments were carried out for each AMP concentration in triplicate. To assess the percentage of viable cells compared to the control, the data were analyzed with GraphPad Prism v5.0 software using non-linear regression to fit the curve (Figure S2). The EC50 was reported as the AMP concentration that reduces cell viability by 50%.

[5] = Cytotoxicity, alamarBlue, BHK-21 cells; type: cell-based, hamster; settings: hamster, 2 h at 37 °C, 0.1–100 µM, alamarBlue fluorescence, non-linear fit, concentration reducing viability by 50%, n ≥ 3, read-out: EC50 (effective cytotoxic concentration)
Protocol: as §2, §3

[6] = system: L. fleischmannii (DSM24998); assay: Growth inhibition assay (MIC), L. fleischmannii; type: cell-based, Listeria fleischmannii; settings: 384-well plates, BHIB, 37 °C, peptide 0.015–250 µM; growth totally inhibited; average of n ≥ 3; dash = no inhibition
Protocol: as §1

seven different bacteria = assay: Antibacterial activity against all seven bacteria tested (summary); type: cell-based; settings: approximate overall value
Protocol: as §1

| Substance | HC10 (hemolytic concentration) (pig erythrocytes) | HC90 (hemolytic concentration) (pig erythrocytes) | HC50 (hemolytic concentration) (pig erythrocytes) | MIC L. monocytogenes [1] | MIC L. grayi (L. grayi (DSM20601)) | MIC M. luteus [2] | MIC E. coli (Escherichia coli (D31)) | MIC P. aeruginosa (concentration inhibiting growth) [3] | EC10 (effective cytotoxic concentration) [4] | EC90 (effective cytotoxic concentration) [4] | CC50 at 2 h [5] | MIC L. fleischmannii [6] | MIC against all seven bacteria tested (seven different bacteria) | percentage of hemolysis (pig erythrocytes; 100 µM peptide (highest tested), 10% Triton X-100 = 100% hemolysis) |
| --- | --- | --- | --- | --- | --- | --- | --- | --- | --- | --- | --- | --- | --- | --- |
| GFWGKLWEGVKNAI-NH2 [UyCT1] | 31.5 µM | 644.46 µM | 142.5 µM | 4 µM | 4 µM | 1 µM | 4 µM | 60 µM | 0.65 µM | 52.12 µM | 17.4 µM | 4 µM | ~ 4 µM |  |
| GFWGKLWEGVKNAIKKK-NH2 [D11] | 39.76 µM | 30,984.53 µM | 1110 µM | 2 µM | 1 µM | 0.25 µM | 4 µM | 30 µM | 0.66 µM | 53.43 µM | 17.8 µM | 1 µM | ~ 1 µM | ~ 10% |
